{
  "source": "patent US20120196858A1",
  "about": "“METHOD OF PROMOTING APOPTOSIS AND INHIBITING METASTASIS” (Poniard Pharmaceuticals ,Inc., priority 2009, published 2012)",
  "key": {"[1]": {"system": "4T1 cells", "test": "Cell adhesion to fibronectin", "format": "cell-based, murine"}, "[2]": {"system": "4T1 tumors", "test": "Orthotopic 4T1 breast carcinoma model (breast fat pad)", "experimental": "Immunohistochemistry: For the detection of apoptosis, sections (7 μm) were analyzed using a terminal deoxynucleotidyl transferase dUTP nick end labeling (TUNEL) kit (Roche). For CD45 staining, sections (7 μm) were fixed in 4% paraformaldehyde, rinsed in PBS, and blocked with a solution of PBS containing 5% BSA, 1% goat serum and 0.1% Triton X. FITC-conjugated anti-CD45 antibodies (Invitrogen) at 1 μg/ml in 5% BSA and PBS were incubated for 2 hours. FITC-conjugated IgG2b isotype antibodies (Invitrogen) at the same concentration were used as a negative control. […] Images were sequentially captured at 40× (UPLFL objective, 1.3 NA; Olympus) using a monochrome charge-coupled camera (ORCA ER; Hamamatsu), an inverted microscope (IX51; Olympus), and Slidebook software (v5.0, Intelligent Imaging). Images were pseudo-colored, overlaid, and merged using Photoshop CS3 (Adobe). Fluorescence quantitation was performed using Image J (v1.43).\nOrthotopic breast cancer models: One million 4T1 or MDA-MB-231 cells in 10 μl PBS were injected into the T4 mammary fat pad of 8-10 week old mice using a Hamilton syringe. […] Tumors were measured every 3-4 days with digital vernier calipers and tumor volume (mm^3) was calculated using the formula: V=axb^2/2 (a=length, mm; b=width, m) Body weight was measured weekly to assess toxicity. Lungs, spleen, and primary tumors were surgically removed and weighed.\nFor 4T1 tumor metastasis analyses, lungs were rinsed in PBS, dorsal and ventral fluorescent images acquired using the OV100 Small Animal Imaging System (Olympus). For all images, a common threshold for mCherry fluorescence was set and lung metastatic burden was calculated by determining the average integrated pixel density for micro-tumors present in each lung using Image J software. Metastatic tumor burden (number of metastatic lesion or mean pixel volume) was determined and groups (Negligible, Moderate, and High) were separated based upon numbers distribution. After imaging, lungs were fixed in Bouin's solution (Sigma), paraffin embedded, sectioned, and stained with hematoxylin and eosin (H&E) for histological evaluation. Images were acquired using a differential interference contrast-equipped Olympus IX81 inverted microscope and an Olympus DP71 digital color camera using Slidebook (v5.0) software. […] Lungs were resected, embedded in OCT, and frozen in liquid nitrogen."}, "[3]": {"system": "4T1 cells", "test": "Soft agar colony growth and apoptosis assay", "format": "cell-based, murine", "method": "Anchorage-dependent, spheroid, and soft agar cell growth assays: Cells (2×10^5) were plated per 35 mm well under adherent (tissue culture-treated) and non-adherent conditions (poly-HEMA-coated) in 6-well plates (Costar) in growth media. Between 24 and 168 h, all cells were collected, a single cell suspension was prepared by limited trypsin-EDTA treatment, and viable cells were enumerated by trypan blue staining and counting (ViCell XR, Beckman). For spheroid area determination, cells were imaged after 72 h in phase contrast using an Olympus IX51 microscope. Area was calculated using Image J software (version 1.43). For soft agar assays, 48-well plates were coated with a 1:4 mix of 2% agar (EM Science) in 0.2 ml growth media (bottom layer). 5×10^4 cells were plated per well (in triplicate) in a mixture of 0.3% agar in 0.2 ml growth media (top layer). […] After 10 days, colonies were imaged in phase contrast, enumerated by counting 9 fields (3 fields per well), and total area determined using Image J. For all analyses, experimental points were performed in triplicate and were experiments were repeated at least two times.\nCell pellets were resuspended in 300 p. 1 of PBS containing propidium iodide (PI) (10 μg/ml), DNAse-free RNAse (100 μg/ml, Qiagen), and then incubated at 37° C. with agitation for 1 h. Samples were analyzed by flow cytometry (FACSCalibur, Becton-Dickinson) and cell cycle analyses were performed by ModFit LT3.2 software (Verity software house). Hypodiploid DNA content as a measure of cell apoptosis was detected by PI staining as described ^29. […] Quadrant gates were positioned based on cell autofluorescence (negative) staurosporine-treated (positive) controls. Apoptosis was calculated to be the percent of annexin V-positive cells. In the soft agar assays, apoptosis was quantified by visual inspection of at least 200 cells and was defined as the appearance of membrane blebbing or cell shrinkage. Apoptosis was also detected by appearance of cleaved caspase-3 antibody reactivity in protein lysates by immunoblotting."}, "[4]": {"system": "interleukin-6 (IL-6) production in 4T1 cells", "test": "IL-6 ELISA after TNFα stimulation", "format": "cell-based, murine", "conditions": "0.25 to 1.0 μM; TNFα 10 ng/ml, 24 h", "method": "After 1 h, recombinant tumor necrosis factor-α (TNFα eBioScience) was added (10 ng/ml) and after 24 h, IL-6 levels in conditioned media were measured using anti-mouse IL-6 ELISA kit (eBioScience)."}, "[5]": {"target": "T1, Lck (lymphocyte-specific protein tyrosine kinase) (Homo sapiens, UniProt P06239)", "T1 construct": "purchased Millipore (KinaseProfiler service)", "T1 sequence (P06239 whole entry, the tested form may be a part)": "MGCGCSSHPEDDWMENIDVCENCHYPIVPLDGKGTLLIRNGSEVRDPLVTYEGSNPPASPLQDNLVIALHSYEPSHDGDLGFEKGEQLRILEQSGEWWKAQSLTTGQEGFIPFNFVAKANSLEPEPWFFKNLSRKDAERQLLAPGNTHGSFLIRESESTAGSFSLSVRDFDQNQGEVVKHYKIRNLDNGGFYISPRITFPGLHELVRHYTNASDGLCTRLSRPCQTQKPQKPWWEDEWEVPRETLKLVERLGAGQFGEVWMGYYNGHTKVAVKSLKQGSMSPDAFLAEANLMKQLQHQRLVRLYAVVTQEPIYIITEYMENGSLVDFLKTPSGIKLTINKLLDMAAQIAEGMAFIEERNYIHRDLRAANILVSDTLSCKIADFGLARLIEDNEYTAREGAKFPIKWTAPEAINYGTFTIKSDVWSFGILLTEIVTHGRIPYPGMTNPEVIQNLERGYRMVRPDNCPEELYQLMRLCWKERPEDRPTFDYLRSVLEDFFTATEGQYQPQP", "test": "Millipore KinaseProfiler selectivity screen", "format": "biochemical", "method": "(§1) Baculovirus FAK catalytic domain and in vitro kinase assays: The FAK catalytic domain region (411-686) was generated by polymerase chain reaction using the primers 5′-[…]-3′ 5′-[…]-3′, cloned into pGEX4T as a fusion with GST, and moved into the pAcG2T baculovirus expression vector (Pharmingen, Baculogold). Virus clones were identified by plaque assays and amplified. For protein expression, SF9 cells were transduced at a multiplicity of infection of 2-5 pfu/cell and cultured at 27° C. for 48 h. Glutathione agarose affinity chromatography were used to purify GST-FAK (411-686) followed by size fractionation using hiload 16/60 Superdex chromatography (GE Healthcare). Protein was concentrated and stored frozen in 50 mM Tris pH 8.0, 150 mM NaCl, 1 mM Na orthovanadate, 0.5 mM EDTA, 0.5 mM EGTA, 0.1% β-mercaptoethanol, and 20% glycerol. Purity was estimated at >90% by SDS-PAGE. GST-FAK in vitro kinase activity was measured and compared to His-tagged FAK 411-686 (Millipore) using the K-LISA screening kit (Calbiochem) and poly(Glu:Tyr) (4:1) copolymer (P0275, Sigma) as a substrate immobilized on microtiter plates. […] Serial diluted compounds at ½-Log concentrations (starting at 1 μM) were tested in triplicate. Substrate phosphorylation was measured using horseradish peroxidase-conjugated anti-pTyr antibodies (PY20, Santa Cruz Biotechnology) with spetrophotometic color quantitation. IC50 values were determined using the Hill-Slope Model. Kinase selectivity profiling was performed by using the KinaseProfiler service (Millipore)."}, "[6]": {"target": "T2, ACK1 (activated Cdc42-associated tyrosine kinase 1) (Homo sapiens, UniProt Q07912)", "T2 construct": "purchased Millipore (KinaseProfiler service)", "test": "Millipore KinaseProfiler selectivity screen", "format": "biochemical", "method": "as §1"}, "[7]": {"target": "T3, TrkA (tropomyosin-related kinase A) (Homo sapiens, UniProt P04629)", "T3 construct": "purchased Millipore (KinaseProfiler service)", "T3 sequence (P04629 33-796)": "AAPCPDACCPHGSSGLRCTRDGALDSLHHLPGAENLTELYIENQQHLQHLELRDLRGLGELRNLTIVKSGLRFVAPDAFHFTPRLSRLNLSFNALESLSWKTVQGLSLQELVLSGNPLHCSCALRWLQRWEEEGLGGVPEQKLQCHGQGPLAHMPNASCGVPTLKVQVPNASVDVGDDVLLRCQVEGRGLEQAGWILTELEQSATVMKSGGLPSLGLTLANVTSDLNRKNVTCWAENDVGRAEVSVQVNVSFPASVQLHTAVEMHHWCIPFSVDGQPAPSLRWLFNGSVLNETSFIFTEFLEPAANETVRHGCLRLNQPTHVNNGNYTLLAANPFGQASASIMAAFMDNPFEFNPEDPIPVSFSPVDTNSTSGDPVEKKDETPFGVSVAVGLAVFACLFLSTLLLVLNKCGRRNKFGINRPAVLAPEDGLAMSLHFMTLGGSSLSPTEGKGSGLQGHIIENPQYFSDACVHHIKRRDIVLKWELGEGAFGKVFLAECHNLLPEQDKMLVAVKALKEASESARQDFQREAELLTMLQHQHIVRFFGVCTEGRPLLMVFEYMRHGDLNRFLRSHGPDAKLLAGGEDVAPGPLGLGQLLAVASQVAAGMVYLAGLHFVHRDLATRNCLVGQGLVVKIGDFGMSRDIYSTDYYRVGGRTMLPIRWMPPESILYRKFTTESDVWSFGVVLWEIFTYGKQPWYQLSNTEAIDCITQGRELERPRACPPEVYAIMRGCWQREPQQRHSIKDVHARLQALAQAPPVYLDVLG", "test": "Millipore KinaseProfiler selectivity screen", "format": "biochemical", "method": "as §1"}, "[8]": {"target": "T4, CDK2 (cyclin-dependent kinase 2)/cyclin A (Homo sapiens, UniProt P24941)", "T4 construct": "purchased Millipore (KinaseProfiler service)", "test": "Millipore KinaseProfiler selectivity screen", "format": "biochemical", "method": "as §1"}, "[9]": {"target": "T5, FAK (Homo sapiens, UniProt Q05397)", "T5 construct": "purchased Millipore (KinaseProfiler service)", "T5 sequence (Q05397 whole entry)": "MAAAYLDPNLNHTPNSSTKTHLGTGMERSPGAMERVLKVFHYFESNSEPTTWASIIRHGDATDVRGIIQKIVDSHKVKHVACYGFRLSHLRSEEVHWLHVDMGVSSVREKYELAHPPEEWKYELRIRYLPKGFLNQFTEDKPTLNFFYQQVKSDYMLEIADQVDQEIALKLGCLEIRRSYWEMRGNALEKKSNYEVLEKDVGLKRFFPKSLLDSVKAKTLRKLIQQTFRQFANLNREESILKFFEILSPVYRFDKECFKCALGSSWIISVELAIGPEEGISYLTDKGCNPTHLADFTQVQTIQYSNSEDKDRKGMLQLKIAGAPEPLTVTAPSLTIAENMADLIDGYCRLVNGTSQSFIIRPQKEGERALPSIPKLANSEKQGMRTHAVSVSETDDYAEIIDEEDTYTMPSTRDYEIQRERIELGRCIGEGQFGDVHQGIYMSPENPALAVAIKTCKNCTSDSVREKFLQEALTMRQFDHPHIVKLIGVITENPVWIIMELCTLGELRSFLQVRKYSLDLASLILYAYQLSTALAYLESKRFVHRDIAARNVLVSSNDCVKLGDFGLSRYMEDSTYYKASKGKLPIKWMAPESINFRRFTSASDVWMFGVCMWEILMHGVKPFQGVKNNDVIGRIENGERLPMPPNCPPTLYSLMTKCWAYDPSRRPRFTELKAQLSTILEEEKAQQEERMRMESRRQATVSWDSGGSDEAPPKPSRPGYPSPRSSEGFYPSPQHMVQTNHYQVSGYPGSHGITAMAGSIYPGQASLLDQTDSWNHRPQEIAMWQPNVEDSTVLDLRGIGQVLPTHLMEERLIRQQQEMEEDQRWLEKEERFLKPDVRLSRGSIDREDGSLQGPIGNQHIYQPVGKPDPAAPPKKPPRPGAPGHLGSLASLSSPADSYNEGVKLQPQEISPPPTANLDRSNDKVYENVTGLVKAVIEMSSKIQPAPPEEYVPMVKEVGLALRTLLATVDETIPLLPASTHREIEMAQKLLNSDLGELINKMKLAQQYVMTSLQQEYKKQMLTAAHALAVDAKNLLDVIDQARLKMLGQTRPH", "test": "Millipore KinaseProfiler selectivity screen", "format": "biochemical", "method": "as §1"}, "[10]": {"target": "T6, Flt3 (FMS-like tyrosine kinase 3) (Homo sapiens, UniProt P36888)", "T6 construct": "purchased Millipore (KinaseProfiler service)", "T6 sequence (P36888 27-993)": "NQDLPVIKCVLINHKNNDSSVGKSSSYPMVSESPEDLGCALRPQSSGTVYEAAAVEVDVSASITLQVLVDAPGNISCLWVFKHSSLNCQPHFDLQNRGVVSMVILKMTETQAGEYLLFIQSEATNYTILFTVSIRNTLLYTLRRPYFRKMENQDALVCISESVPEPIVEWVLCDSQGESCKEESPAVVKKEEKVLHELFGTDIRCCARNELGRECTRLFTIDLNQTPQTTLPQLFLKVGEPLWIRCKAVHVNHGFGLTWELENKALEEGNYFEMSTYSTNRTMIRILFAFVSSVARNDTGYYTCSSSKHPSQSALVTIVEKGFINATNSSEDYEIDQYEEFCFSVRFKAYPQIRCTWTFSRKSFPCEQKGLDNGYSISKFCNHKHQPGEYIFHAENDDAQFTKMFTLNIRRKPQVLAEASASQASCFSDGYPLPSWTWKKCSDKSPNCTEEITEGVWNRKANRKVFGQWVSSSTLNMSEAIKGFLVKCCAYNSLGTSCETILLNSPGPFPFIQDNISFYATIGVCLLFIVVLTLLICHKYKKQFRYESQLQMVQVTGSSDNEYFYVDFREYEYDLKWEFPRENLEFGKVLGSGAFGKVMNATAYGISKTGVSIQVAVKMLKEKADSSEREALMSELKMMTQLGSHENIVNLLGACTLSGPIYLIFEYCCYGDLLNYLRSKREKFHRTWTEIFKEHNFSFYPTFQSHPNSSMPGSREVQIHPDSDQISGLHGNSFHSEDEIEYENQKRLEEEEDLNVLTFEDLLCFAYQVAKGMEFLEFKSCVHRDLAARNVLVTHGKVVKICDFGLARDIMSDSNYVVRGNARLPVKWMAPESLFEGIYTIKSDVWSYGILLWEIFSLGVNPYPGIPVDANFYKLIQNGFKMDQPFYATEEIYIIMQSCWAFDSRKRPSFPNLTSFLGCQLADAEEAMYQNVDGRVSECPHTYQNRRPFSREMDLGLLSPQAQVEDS", "test": "Millipore KinaseProfiler selectivity screen", "format": "biochemical", "method": "as §1"}, "[11]": {"target": "T7, Aurora-A (Homo sapiens, UniProt O14965)", "T7 construct": "purchased Millipore (KinaseProfiler service)", "T7 sequence (O14965 whole entry)": "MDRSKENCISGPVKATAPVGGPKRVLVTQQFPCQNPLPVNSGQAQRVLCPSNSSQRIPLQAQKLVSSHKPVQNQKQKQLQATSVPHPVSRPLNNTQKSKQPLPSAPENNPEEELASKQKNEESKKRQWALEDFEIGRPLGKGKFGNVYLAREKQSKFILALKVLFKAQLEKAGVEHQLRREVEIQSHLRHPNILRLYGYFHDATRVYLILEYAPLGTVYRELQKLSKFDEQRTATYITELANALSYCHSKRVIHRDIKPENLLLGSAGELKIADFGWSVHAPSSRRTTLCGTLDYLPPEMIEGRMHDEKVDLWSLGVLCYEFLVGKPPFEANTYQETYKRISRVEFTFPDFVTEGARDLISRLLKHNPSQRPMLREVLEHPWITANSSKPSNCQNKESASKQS", "test": "Millipore KinaseProfiler selectivity screen", "format": "biochemical", "conditions": "read-out: kinase inhibition", "method": "as §1"}, "[12]": {"target": "T8, insulin receptor (IR) (Homo sapiens, UniProt P06213)", "T8 construct": "purchased Millipore (KinaseProfiler service)", "T8 sequence (P06213 28-1382)": "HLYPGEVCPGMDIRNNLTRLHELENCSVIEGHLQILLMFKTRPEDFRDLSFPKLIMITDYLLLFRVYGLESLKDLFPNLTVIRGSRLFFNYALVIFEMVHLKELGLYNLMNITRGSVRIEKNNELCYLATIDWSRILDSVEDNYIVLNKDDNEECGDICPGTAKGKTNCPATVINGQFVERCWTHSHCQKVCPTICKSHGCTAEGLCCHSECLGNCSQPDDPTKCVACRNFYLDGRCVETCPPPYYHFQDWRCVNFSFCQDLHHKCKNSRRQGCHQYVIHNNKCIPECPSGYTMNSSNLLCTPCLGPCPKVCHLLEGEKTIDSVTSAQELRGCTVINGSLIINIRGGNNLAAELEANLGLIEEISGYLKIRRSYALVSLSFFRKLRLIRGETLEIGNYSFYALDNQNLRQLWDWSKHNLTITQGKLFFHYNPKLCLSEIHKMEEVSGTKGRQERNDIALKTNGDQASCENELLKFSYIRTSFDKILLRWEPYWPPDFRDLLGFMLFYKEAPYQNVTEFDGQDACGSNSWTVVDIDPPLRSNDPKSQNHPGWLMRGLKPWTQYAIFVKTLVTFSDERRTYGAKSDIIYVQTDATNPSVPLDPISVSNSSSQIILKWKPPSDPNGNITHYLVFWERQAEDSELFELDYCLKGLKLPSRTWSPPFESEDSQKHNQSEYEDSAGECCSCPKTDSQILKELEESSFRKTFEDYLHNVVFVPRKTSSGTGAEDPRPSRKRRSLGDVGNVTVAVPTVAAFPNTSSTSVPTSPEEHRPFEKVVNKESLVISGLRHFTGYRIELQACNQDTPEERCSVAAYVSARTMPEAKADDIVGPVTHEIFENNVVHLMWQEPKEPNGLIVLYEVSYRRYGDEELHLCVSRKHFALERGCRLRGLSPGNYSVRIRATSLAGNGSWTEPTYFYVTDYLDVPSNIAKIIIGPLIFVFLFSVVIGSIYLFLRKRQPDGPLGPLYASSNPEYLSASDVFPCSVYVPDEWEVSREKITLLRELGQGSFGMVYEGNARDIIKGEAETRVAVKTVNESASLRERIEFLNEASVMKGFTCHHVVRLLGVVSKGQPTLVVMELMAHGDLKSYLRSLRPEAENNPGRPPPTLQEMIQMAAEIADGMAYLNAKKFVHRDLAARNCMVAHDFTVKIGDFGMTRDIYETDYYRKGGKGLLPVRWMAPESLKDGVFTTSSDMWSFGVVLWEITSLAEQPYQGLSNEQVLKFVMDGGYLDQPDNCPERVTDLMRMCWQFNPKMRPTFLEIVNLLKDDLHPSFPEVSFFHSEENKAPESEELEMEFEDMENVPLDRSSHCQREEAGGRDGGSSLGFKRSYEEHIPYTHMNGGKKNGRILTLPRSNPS", "test": "Millipore KinaseProfiler selectivity screen", "format": "biochemical", "conditions": "read-out: kinase inhibition", "method": "as §1"}, "[13]": {"conditions": "0.5 mg/ml ad libitum in drinking water"}, "[14]": {"conditions": "150 mg/kg p.o. b.i.d. vs vehicle"}, "[15]": {"conditions": "150 mg/kg p.o., b.i.d., 15 days"}, "[16]": {"conditions": "oral, 4T1 and MDA-MB-231 orthotopic models"}},
  "data": [
    {"compound": "CNC(=O)c1ccccc1Nc1cc(Nc2ccc(N3CCOCC3)cc2OC)ncc1C(F)(F)F", "note": "[PND-1186]", "values": [
      {"measurement": "effect on 4T1 cell adhesion to fibronectin", "setting": "[1]", "value": "did not affect 4T1 cell adhesion to fibronectin"},
      {"measurement": "average concentration in plasma", "setting": "[2]; [13]", "value": 1.0, "unit": "µM"},
      {"measurement": "average concentration in tumors", "setting": "[2]; [13]", "value": 0.52, "unit": "µg/g"},
      {"measurement": "tumor growth and tumoral FAK-p130Cas phosphorylation", "setting": "[2]; [13]", "value": "significantly decreased tumor growth and tumoral FAK-p130Cas phosphorylation"},
      {"measurement": "decrease in CD45 tumor-associated staining", "setting": "[2]; 150 mg/kg", "value": 2.8, "unit": "fold"},
      {"measurement": "tumor vasculature (anti-CD31 staining)", "setting": "[2]; 150 mg/kg p.o. b.i.d.", "value": "no major vascular differences"},
      {"measurement": "increase of TUNEL staining in breast fat pad tumors", "setting": "[2]; [14]", "value": 2.8, "unit": "fold"},
      {"measurement": "tumor volume by Day 7", "setting": "[2]; [14]", "value": "significantly reduced tumor volume"},
      {"measurement": "reduction of final tumor weight", "setting": "[2]; 150 mg/kg p.o. b.i.d., 16 days", "value": 3.1, "unit": "fold"},
      {"measurement": "total body weight", "setting": "[2]; 150 mg/kg p.o. b.i.d., 16 days", "value": "without affects on total body weight"},
      {"measurement": "orthotopic and syngeneic breast carcinoma tumor growth and spontaneous metastasis to lungs", "setting": "[2]; 150 mg/kg p.o. bid", "value": "significantly inhibited"},
      {"measurement": "lung metastases by H&E staining of lung sections", "setting": "[2]; [15]", "value": "detectable 4T1 lung metastases in control but not PND-1186-treated mice"},
      {"measurement": "mice with high lung metastatic burden", "setting": "[2]; [15]", "value": "no mice with a high metastatic burden"},
      {"measurement": "mice with negligible lung metastases", "setting": "[2]; [15]", "value": "7/12"},
      {"measurement": "tumor histology", "setting": "[2]; ad libitum PND-1186", "value": "necrotic regions at the tumor core, increased TUNEL staining, and decreased leukocyte infiltrate"},
      {"measurement": "FAK pY397 and p130Cas pY410 phosphorylation in primary tumors", "setting": "[2]; ad libitum oral", "value": "sufficient to inhibit both FAK pY397 and p130Cas pY410 phosphorylation"},
      {"measurement": "mice with negligible to moderate lung metastatic burden", "setting": "[2]; ad libitum oral", "value": "13/15"},
      {"measurement": "pY118 paxillin phosphorylation in tumors", "setting": "[2]; ad libitum oral", "value": "inhibited pY118 paxillin phosphorylation"},
      {"measurement": "pY416 Src, pY402 Pyk2, pS473 Akt, pT308 Akt phosphorylation in tumors", "setting": "[2]; ad libitum oral", "value": "not pY416 Src nor pY402 Pyk2, pS473 Akt, or pT308 Akt phosphorylation"},
      {"measurement": "spleen size", "setting": "[2]; ad libitum oral", "value": "normal size"},
      {"measurement": "inhibition of final tumor mass", "setting": "[2]; ad libitum oral, Day 22", "value": "> 1.8", "unit": "fold"},
      {"measurement": "toxicity or weight loss", "setting": "[2]; ad libitum oral, Day 22", "value": "without toxicity or weight loss"},
      {"measurement": "tumor-associated inflammatory cell infiltration and splenomegaly", "setting": "[2]; mice with syngeneic 4T1 tumors", "value": "significantly decreased tumor-associated inflammatory cell infiltration and splenomegaly"},
      {"measurement": "tumor-associated splenomegaly", "setting": "[2]; mouse, in vivo", "value": "reduced tumor-associated splenomegaly"},
      {"measurement": "anti-tumor and anti-metastatic effects", "setting": "[2]; [16]", "value": "significant anti-tumor and anti-metastatic effects"},
      {"measurement": "tolerability of oral dosing", "setting": "[2]; [16]", "value": "without animal morbidity, death or weight loss"},
      {"measurement": "spleen appearance", "setting": "[2]; tumor-bearing PND-1186-treated mice", "value": "healthy and indistinguishable from non-treated, non-tumor bearing mice"},
      {"measurement": "4T1 cell apoptosis (membrane blebbing and cell shrinkage)", "setting": "[3]; 0.2 μM, soft agar", "value": "> 50", "unit": "%"},
      {"measurement": "total number and size of soft agar colonies", "setting": "[3]; 10 days, dose-dependent", "value": "inhibited both the total number and size"},
      {"measurement": "inhibition at 0.2 µM", "setting": "[3]; Mus musculus, 4T1, 240 h, 0.2 μM, 10 days, read-out: inhibition of soft agar colony size", "value": 77, "unit": "%"},
      {"measurement": "TNFα-triggered IL-6 release", "setting": "[4]", "value": "inhibited IL-6 release in a dose-dependent manner"},
      {"measurement": "inhibition at 1 µM", "setting": "[5]", "value": "> 50", "unit": "%"},
      {"measurement": "inhibition at 1 µM", "setting": "[6]", "value": "> 50", "unit": "%"},
      {"measurement": "inhibition at 1 µM", "setting": "[7]", "value": "> 50", "unit": "%"},
      {"measurement": "inhibition at 1 µM", "setting": "[8]", "value": "> 50", "unit": "%"},
      {"measurement": "kinase inhibition specificity", "setting": "[9]; 0.1 μM PND-1186", "value": "displayed specificity for FAK as well as Flt3"},
      {"measurement": "remaining kinase activity", "setting": "[9]; 1 μM PND-1186", "value": "negligible activity"},
      {"measurement": "kinase inhibition specificity", "setting": "[10]; 0.1 μM PND-1186", "value": "displayed specificity for FAK as well as Flt3"},
      {"measurement": "remaining kinase activity", "setting": "[10]; 1 μM PND-1186", "value": "negligible activity"},
      {"measurement": "inhibition at 1 µM", "setting": "[11]", "value": "> 50", "unit": "%"},
      {"measurement": "inhibition at 1 µM", "setting": "[12]", "value": "> 50", "unit": "%"}
    ]}
  ]
}
